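Here, GI50 denotes the concentration required for 50% inhibition of growth. TGI: concentration producing complete growth inhibition.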
Key:
Assay in all cases: NCI tumour cell line growth inhibition, 384-well format
OVCAR-4 ovarian = test system: OVCAR-4 ovarian
DU-145 prostate = test system: DU-145 prostate
RPMI-8226 leukemia = test system: RPMI-8226 leukemia
HOP-62 NSCLC = test system: HOP-62 NSCLC
NCI-H322M lung = test system: NCI-H322M lung
HT29 colon = test system: HT29 colon
SF-268 CNS = test system: SF-268 CNS
MDA-MB-435 melanoma = test system: MDA-MB-435 melanoma
NCI-H522 lung = test system: NCI-H522 lung
UO-31 renal = test system: UO-31 renal
HS 578T breast = test system: HS 578T breast
SNB-19 CNS = test system: SNB-19 CNS
CAKI-1 renal = test system: CAKI-1 renal
TK-10 renal = test system: TK-10 renal
CCRF-CEM leukemia = test system: CCRF-CEM leukemia
786-0 renal = test system: 786-0 renal
SF-295 CNS = test system: SF-295 CNS
SK-MEL-28 melanoma = test system: SK-MEL-28 melanoma
OVCAR-3 ovarian = test system: OVCAR-3 ovarian
A549 NSCLC = test system: A549 NSCLC
IGROV1 ovarian = test system: IGROV1 ovarian
HOP-92 NSCLC = test system: HOP-92 NSCLC
UACC-257 melanoma = test system: UACC-257 melanoma
SNB-75 CNS = test system: SNB-75 CNS
HL-60(TB) leukemia = test system: HL-60(TB) leukemia
COLO 205 colon = test system: COLO 205 colon
NCI/ADR-RES ovarian = test system: NCI/ADR-RES ovarian
PC-3 prostate = test system: PC-3 prostate
SR leukemia = test system: SR leukemia
T-47D breast = test system: T-47D breast
RXF 393 renal = test system: RXF 393 renal
MCF7 breast = test system: MCF7 breast
SK-MEL-5 melanoma = test system: SK-MEL-5 melanoma
HCT-15 colon = test system: HCT-15 colon
OVCAR-5 ovarian = test system: OVCAR-5 ovarian
NCI-H226 lung = test system: NCI-H226 lung
A498 renal = test system: A498 renal
OVCAR-8 ovarian = test system: OVCAR-8 ovarian
KM12 colon = test system: KM12 colon
SW-620 colon = test system: SW-620 colon
HCC-2998 colon = test system: HCC-2998 colon
MALME-3M melanoma = test system: MALME-3M melanoma
MOLT-4 leukemia = test system: MOLT-4 leukemia
NCI-H23 lung = test system: NCI-H23 lung
SF-539 CNS = test system: SF-539 CNS
M14 melanoma = test system: M14 melanoma
U251 glioblastoma = test system: U251 glioblastoma

## O=C(/C=C/c1cccc(S(=O)(=O)Nc2ccccc2)c1)NO
OVCAR-4 ovarian
  GI50: 1880 nM
  TGI: 5860 nM
DU-145 prostate
  GI50: 260 nM
  TGI: 793 nM
RPMI-8226 leukemia
  GI50: 95.7 nM
  TGI: 221 nM
HOP-62 NSCLC
  GI50: 498 nM
  TGI: 2330 nM
NCI-H322M lung
  GI50: 465 nM
  TGI: 1840 nM
HT29 colon
  GI50: 282 nM
  TGI: 918 nM
SF-268 CNS
  GI50: 517 nM
  TGI: 1660 nM
MDA-MB-435 melanoma
  GI50: 492 nM
  TGI: 1450 nM
NCI-H522 lung
  GI50: 155 nM
  TGI: 610 nM
UO-31 renal
  GI50: 1020 nM
  TGI: 3170 nM
HS 578T breast
  GI50: 474 nM
  TGI: 1600 nM
SNB-19 CNS
  GI50: 853 nM
  TGI: 2240 nM
CAKI-1 renal
  GI50: 218 nM
  TGI: 885 nM
TK-10 renal
  GI50: 445 nM
  TGI: 2000 nM
CCRF-CEM leukemia
  GI50: 134 nM
  TGI: 263 nM
786-0 renal
  GI50: 898 nM
  TGI: 2780 nM
SF-295 CNS
  GI50: 607 nM
  TGI: 1910 nM
SK-MEL-28 melanoma
  GI50: 565 nM
  TGI: 1890 nM
OVCAR-3 ovarian
  GI50: 299 nM
  TGI: 1280 nM
A549 NSCLC
  GI50: 422 nM
  TGI: 1590 nM
IGROV1 ovarian
  GI50: 271 nM
  TGI: 781 nM
HOP-92 NSCLC
  GI50: 343 nM
  TGI: 1070 nM
UACC-257 melanoma
  GI50: 289 nM
  TGI: 1030 nM
SNB-75 CNS
  GI50: 258 nM
  TGI: 796 nM
HL-60(TB) leukemia
  GI50: 223 nM
  TGI: 373 nM
COLO 205 colon
  GI50: 330 nM
  TGI: 791 nM
NCI/ADR-RES ovarian
  GI50: 210 nM
  TGI: 551 nM
PC-3 prostate
  GI50: 433 nM
  TGI: 1760 nM
SR leukemia
  GI50: 88.4 nM
  TGI: 204 nM
T-47D breast
  GI50: 208 nM
  TGI: 547 nM
RXF 393 renal
  GI50: 87.7 nM
  TGI: 365 nM
MCF7 breast
  GI50: 264 nM
  TGI: 1300 nM
SK-MEL-5 melanoma
  GI50: 155 nM
  TGI: 393 nM
HCT-15 colon
  GI50: 579 nM
  TGI: 2100 nM
OVCAR-5 ovarian
  GI50: 369 nM
  TGI: 1480 nM
NCI-H226 lung
  GI50: 1260 nM
  TGI: 3050 nM
A498 renal
  GI50: 494 nM
  TGI: 1450 nM
OVCAR-8 ovarian
  GI50: 225 nM
  TGI: 985 nM
KM12 colon
  GI50: 128 nM
  TGI: 1720 nM
SW-620 colon
  GI50: 188 nM
  TGI: 436 nM
HCC-2998 colon
  GI50: 490 nM
  TGI: 1220 nM
MALME-3M melanoma
  GI50: 184 nM
  TGI: 450 nM
MOLT-4 leukemia
  GI50: 137 nM
  TGI: 267 nM
NCI-H23 lung
  GI50: 407 nM
  TGI: 1590 nM
SF-539 CNS
  GI50: 616 nM
  TGI: 2650 nM
M14 melanoma
  GI50: 537 nM
  TGI: 2140 nM
U251 glioblastoma
  GI50: 430 nM
  TGI: 1340 nM

— PubChem BioAssay (NCI)
